# Values of other authors, collected in article PMC12177174 (iScience, 2025).
# Where two headings read alike, the source gives them in different places.
# Tests used:
# tumor = conditions: cited from earlier work
# bone mineral density = conditions: cited from earlier work
# [1] = cited from earlier work
# heart repair = conditions: cited from earlier work
# [2] = 20 patients, median 22 weeks treatment; cited from earlier work
# Axin2 mRNA = conditions: cited from earlier work
# skin fibrosis = conditions: cited from earlier work
# [3] = cited from earlier work; remark: listed apart in the source
SMILES,tumor response (tumor),bone mineral density (bone mineral density),participants reporting dysgeusia [1] [%],circulating CTX-1 levels ([1]; patients with advanced cancer),heart repair following cardiac injury (heart repair),patients who developed fragility fractures [2] [%],mean reduction in AXIN2 mRNA levels in skin biopsies (Axin2 mRNA),skin fibrosis (skin fibrosis),participants reporting dysgeusia [3] [%],participants with reduced tumor size ([3]; various advanced cancers) [%]
Cn1c(=O)c2c(ncn2CC(=O)Nc2ccc(-c3ccccc3)nn2)n(C)c1=O [ETC-159],induces tumor regression,caused loss of bone mineral density,≤ 50,increased circulating CTX-1 levels,–,–,–,–,–,–
Cc1cc(-c2ncc(CC(=O)Nc3ccc(-c4cnccn4)cn3)cc2C)ccn1 [WNT974],–,caused loss of bone mineral density,–,–,promoted heart repair,45,50%–60%,prevented progression of skin fibrosis,≤ 50,74
